pIC50: −log10 of the molar value. The source made the active and inactive calls. The rule behind the calls is not given here.
Experiments:
[1] = Cytotoxicity against primary mouse hepatocytes after 48 hrs by neutral red assay; assay type: cell-based, Hepatocyte; details: read-out: TC50
[2] = test system: Plasmodium yoelii yoelii; test: Antimalarial activity against Plasmodium yoelii 265 sporozoites in primary mice (Mus musculus) hepatocytes after 48 hrs; assay type: functional, organism-based; details: 265 BY, Hepatocyte
[3] = Selectivity index, ratio of TC50 for primary mice (Mus musculus) hepatocytes to IC50 for Plasmodium yoelii yoelii 265 BY liver stage sporozoites; design: species or system Hepatocyte
[4] = test system: Plasmodium yoelii yoelii; test: Antimalarial activity against Plasmodium yoelii 265 BY liver stage sporozoites in primary mice (Mus musculus) hepatocytes at 7.1 uM after 48 hrs; assay type: functional, organism-based; details: Hepatocyte
[5] = test system: Plasmodium yoelii yoelii; test: Antimalarial activity against Plasmodium yoelii 265 BY liver stage sporozoites in primary mice (Mus musculus) hepatocytes at 38.6 uM after 48 hrs; assay type: functional; details: Hepatocyte

| Compound | CC50 at 48 h [1] | pIC50 [2] | Ratio [3] | Activity [4] | inhibition in vivo at 38.6 µM [5] |
| --- | --- | --- | --- | --- | --- |
| COC1=C2[C@H]3NCC[C@]2(C[C@H](O)[C@@H]1O)c1c(ccc(OC)c1O)[C@@H]3O[C@@H]1O[C@H](CO)[C@@H](O)[C@H](O)[C@H]1O | > 390 µM | < 3.41 | – | – | – |
| COC1=C2[C@H]3NCC[C@]2(C[C@H](O)[C@@H]1O)c1c(ccc(OC)c1O)[C@H]3O [TAZOPSINE] | 43.7 µM | 5.51 | 14 | Active | – |
| COC1=C2[C@H]3NCC[C@]2(C[C@H](O)[C@@H]1O)c1c(ccc(OC)c1O)[C@@H]3O | 388 µM | 4.79 | 24.1 | – | – |
| COc1cc(NC(C)CCCN)c2ncccc2c1 (stereo unspecified) [PRIMAQUINE] | 70.5 µM | 6.19 | 110 | – | 80% |
| COC1=C2[C@@H]3Cc4ccc(OC)c(O)c4[C@]2(CCN3)C[C@H](O)[C@@H]1O [SINOCOCULINE] | 62.2 µM | 5.35 | 13.8 | – | – |
